Experimental data taken from publication PMC10714400, “Antimicrobial Peptide–Peptoid Hybrids with and without Membrane Disruption” (ACS Infectious Diseases, 2023).

Assays:
P. aeruginosa PAO1 [1] = test: Bacterial count after treatment, before TEM sample preparation; format: cell-based, Pseudomonas aeruginosa; conditions: P. aeruginosa PAO1, […] MH pH 8.5, 10x MIC
Procedure: (§1) Just before the samples were further prepared for the microscopy, surviving bacteria were quantified by plating 10-fold dilutions of samples in sterilized normal saline (NaCl 0.9%) on LB agar plates. […] The assay was performed in triplicate. Each bacteria sample was centrifuged at 12,000 rpm for 3 min, and the supernatant was discarded. The samples were then further processed and imaged using our previously described protocol.[64]
8. Transmission electron microscopy (TEM)
Table S4: Bacterial counts, 2 hours after treatment, before TEM sample preparation. Data represents triplicates.
Bacteria count after treatment at 10x MIC and 2 h of incubation at 37 °C
Control (non-treated cells) 1 × 10^8 CFU (100)

[2] = Circular dichroism, α-helical content; format: physicochemical; conditions: 0.1 mg/mL; for CD %α with 5 mM DPC: 10 mM phosphate buffer pH 7.4, 5 mM DPC; for CD %α with 20% TFE: 10 mM phosphate buffer pH 7.4, 20% TFE
B. cenocepacia = conditions: 4 h, pH 8.5
Procedure: (§2) Antimicrobial activity was assayed for all the peptide–peptoids against P. aeruginosa PAO1, K. pneumoniae NCTC418, E. coli W3110, A. baumannii ATCC 19606, methicillin-resistant S. aureus COL (MRSA), and for selected peptides on P. aeruginosa PA14 and the polymyxin-B-resistant derivatives PA14 4.13, PA14 4.18, PA14 2P4, as well as the clinical isolates ZEM-1A and ZEM9A, K. pneumoniae OXA-48, S. aureus Newman, Enterobacter cloacae, Stenotrophomonas maltophilia, Burkholderia cenocepacia, and Staphylococus epidermidis. To determine the Minimal Inhibitory Concentration (MIC), the Broth Microdilution method was used.[72] A colony of bacteria was picked and grown in LB medium overnight at 37 °C.
(§3) To each well was finally added 4 μL of the diluted bacterial suspension (see above), corresponding to approximately 5 × 10^5 CFU. For each test, two columns of the plate were kept for sterility control (medium only), growth control (medium with bacterial inoculum, no compound). The positive control, Polymyxin B (starting with a concentration of 16 μg/mL) in MH medium with bacterial inocula, was introduced in the two lines of the plate. […] Next, 15 μL of 3-(4,5-dimethylthiazol-2-yl)-2,5-diphenyltetrazolium bromide (MTT)[73] (1 mg/mL in sterilized MilliQ deionized water) were added to each well, and the plates were incubated for 20–30 min at room temperature. The minimal inhibitory concentration (MIC) was defined as the lowest concentration of the compound that inhibits the visible growth of the tested bacteria (yellow) with the unaided eye.

S. epidermis = conditions: Table S3; […] MH at pH 8.5
Procedure: as §2, §3

S. maltophilia = conditions: Table S3; […] MH at pH 8.5
Procedure: as §2, §3

S. aureus Newman = conditions: Table S3; […] MH at pH 8.5
Procedure: as §2, §3

P. aeruginosa PA14 = conditions: Table S3; […] MH at pH 8.5, 16-20 hours at 37 °C
Procedure: as §2, §3

P. aeruginosa PAO1 [3] = test: Transmission electron microscopy (TEM); format: cell-based, Pseudomonas aeruginosa; conditions: P. aeruginosa PAO1, 10 × MIC, […] MH at pH 8.5, 2 h at 37 °C
Procedure: Scale bars are 500 nm and 1 μm. Red arrows: membrane perturbations. Blue arrows: intracellular aggregation. Yellow arrows: empty area within the cell.
as §1

K. pneumoniae OXA-48 = conditions: Table S3; […] MH at pH 8.5
Procedure: as §2
(§4) To each well was finally added 4 μL of the diluted bacterial suspension (see above), corresponding to approximately 5 × 10^5 CFU. For each test, two columns of the plate were kept for sterility control (medium only), growth control (medium with bacterial inoculum, no compound). The positive control, Polymyxin B (starting with a concentration of 16 μg/mL) in MH medium with bacterial inocula, was introduced in the two lines of the plate. The plates were incubated at 37 °C for ca. 18 h under static conditions. Next, 15 μL of 3-(4,5-dimethylthiazol-2-yl)-2,5-diphenyltetrazolium bromide (MTT)[73] (1 mg/mL in sterilized MilliQ deionized water) were added to each well, and the plates were incubated for 20–30 min at room temperature. The minimal inhibitory concentration (MIC) was defined as the lowest concentration of the compound that inhibits the visible growth of the tested bacteria (yellow) with the unaided eye.

A. baumannii ATCC19606 = system: A. baumannii ATCC19606
Procedure: as §2, §4

E. cloacae = conditions: Table S3; […] MH at pH 8.5
Procedure: as §2, §4

P. aeruginosa PAO1 [4] = system: P. aeruginosa PAO1
Procedure: as §2, §4

E. coli W3110 = system: E. coli W3110
Procedure: as §2, §4

K. pneumoniae NCTC418 = system: K. pneumoniae NCTC418
Procedure: as §2, §4

PA14 4.18 (pmrB) = conditions: diluted MH ([…] MH) at pH 8.5 (Table 2 footnote b)
Procedure: as §2, §4

S. aureus COL (MRSA) = conditions: Table S2
Procedure: as §2, §4

PA14 2P4 (pmrB) = conditions: diluted MH ([…] MH) at pH 8.5 (Table 2 footnote b)
Procedure: as §2, §4

[5] = system: ZEM9A (clinical MDR P. aeruginosa isolate); conditions: Table S3; […] MH at pH 8.5
Procedure: as §2, §4

[6] = system: ZEM-1A (clinical MDR P. aeruginosa isolate); conditions: Table S3; […] MH at pH 8.5
Procedure: as §2, §4

PA14 4.13 (phoQ) = conditions: diluted MH ([…] MH) at pH 8.5 (Table 2 footnote b)
Procedure: as §2, §4

## H-VDKPPYLPRPRPPRRIYNR-NH2 [Onc, reference compound]
P. aeruginosa PAO1 [1]
  Bacteria count after treatment at 10x MIC and 2 h of incubation at 37 °C (% of control): 0.01 % of control
[2]; DichroWeb, Contin-LL
  CD %α with 5 mM DPC: 20%
  CD %α with 20% TFE: 23%
[2]; Table S2
  CD %α with 5 mM DPC: 20%
  CD %α with 20% TFE: 23%
B. cenocepacia
  MIC B. cenocepacia: 32 µg/mL
S. epidermis
  MIC S. epidermis: 4 µg/mL
S. maltophilia
  MIC S. maltophilia: > 32 µg/mL
S. aureus Newman
  MIC S. aureus Newman: 1 µg/mL
P. aeruginosa PA14
  MIC P. aeruginosa PA14: 2 µg/mL
P. aeruginosa PAO1 [3]
  TEM micrographs, changes in treated bacteria: aggregation of intracellular components
K. pneumoniae OXA-48
  MIC K. pneumoniae OXA-48: 1 µg/mL
A. baumannii ATCC19606; ATCC19606, 4 h, pH 8.5
  MIC A. baumannii ATCC19606 Full MH 8.5: 8 µg/mL
A. baumannii ATCC19606; Table S2, […] MH, pH 7.4
  MIC A. baumannii ATCC19606 […] 7.4: 4 µg/mL
A. baumannii ATCC19606; Table S2, […] MH, pH 8.5
  MIC A. baumannii ATCC19606 […] 8.5: 4 µg/mL
A. baumannii ATCC19606; Table S2, full MH, pH 7.4
  MIC A. baumannii ATCC19606 Full MH 7.4: 32 µg/mL
A. baumannii ATCC19606; […] MH vs full MH, A. baumannii
  Activity increase in dilute medium: 4 fold
E. cloacae
  MIC E. cloacae: 2 µg/mL
P. aeruginosa PAO1 [4]; P. aeruginosa PAO1, […] MH at pH 8.5, up to 300 mM NaCl
  Antibacterial activity as a function of NaCl concentration: strongly reduced
P. aeruginosa PAO1 [4]; Table S2, […] MH, pH 7.4
  MIC P. aeruginosa PAO1 […] 7.4: 32 µg/mL
P. aeruginosa PAO1 [4]; Table S2, full MH, pH 7.4
  MIC P. aeruginosa PAO1 Full MH 7.4: > 32 µg/mL
P. aeruginosa PAO1 [4]; Table S2, full MH, pH 8.5
  MIC P. aeruginosa PAO1 Full MH 8.5: > 32 µg/mL
E. coli W3110; E. coli W3110, […] MH at pH 8.5, up to 300 mM NaCl
  Antibacterial activity as a function of NaCl concentration: strongly reduced
E. coli W3110; Table S2, […] MH, pH 7.4
  MIC E. coli W3110 […] 7.4: 1 µg/mL
E. coli W3110; Table S2, […] MH, pH 8.5
  MIC E. coli W3110 […] 8.5: 1 µg/mL
E. coli W3110; Table S2, full MH, pH 7.4
  MIC E. coli W3110 Full MH 7.4: 4 µg/mL
E. coli W3110; Table S2, full MH, pH 8.5
  MIC E. coli W3110 Full MH 8.5: 1 µg/mL
E. coli W3110; […] MH vs full MH, E. coli
  Activity increase in dilute medium: 4 fold
K. pneumoniae NCTC418; Table S2, […] MH, pH 7.4
  MIC K. pneumoniae NCTC418 […] 7.4: 1 µg/mL
K. pneumoniae NCTC418; Table S2, […] MH, pH 8.5
  MIC K. pneumoniae NCTC418 […] 8.5: 1 µg/mL
K. pneumoniae NCTC418; Table S2, full MH, pH 7.4
  MIC K. pneumoniae NCTC418 Full MH 7.4: 4 µg/mL
K. pneumoniae NCTC418; Table S2, full MH, pH 8.5
  MIC K. pneumoniae NCTC418 Full MH 8.5: 4 µg/mL
K. pneumoniae NCTC418; […] MH vs full MH, K. pneumoniae
  Activity increase in dilute medium: 4 fold
PA14 4.18 (pmrB)
  MIC PA14 4.18 (pmrB): 2 µg/mL
S. aureus COL (MRSA); […] MH, pH 7.4
  MIC S. aureus COL (MRSA) […] 7.4: 32 µg/mL
S. aureus COL (MRSA); full MH, pH 7.4
  MIC S. aureus COL (MRSA) Full MH 7.4: > 32 µg/mL
S. aureus COL (MRSA); full MH, pH 8.5
  MIC S. aureus COL (MRSA) Full MH 8.5: > 32 µg/mL
PA14 2P4 (pmrB)
  MIC PA14 2P4 (pmrB): 2 µg/mL
[5]
  MIC P. aeruginosa ZEM9A: 16 µg/mL
[6]
  MIC P. aeruginosa ZEM-1A: 2 µg/mL
PA14 4.13 (phoQ)
  MIC PA14 4.13 (phoQ): 2 µg/mL
